Reference: patent US7071190B2, “Inhibitors to tubulin polymerization” (Rigel Pharmaceuticals, Inc., priority 2002, dated 2006)
pIC50: −log10 of the molar value. Entries after “also recorded” stand apart in the source; their conditions may differ.

Key:
[1] = test system: MAP-rich tubulin protein from bovine brain; assay: Tubulin polymerization turbidity assay (A340 over time); format: biochemical; settings: 10 μM compound, FIG. 1 (a), (b)
Method: FIG. 1. Tubulin polymerization inhibitory activity of the compounds of the invention was assayed by following the turbidity of a tubulin-containing solution over time. Polymerization of tubulin generates microtubules, the presence of which increases the absorbance of the assay solution over time. Effective inhibition manifests as a reduction of rate of absorbance increase at 340 nanometers. (a) 10 μM of compounds 19, 39, 43, 54 and 62, as well as 10 μM nocodazole as a positive control and DMSO as a negative control. (b) 10 μM of compounds 1, 88, 95, and 54, as well as 10 μM as well a positive controls 1 and 2 and DMSO as a negative control. (c) 0.4, 2.0 and 10 μM compound 54 versus 0.4, 2.0 and 10 μM nocodazole as a positive control and DMSO as a negative control.
Measurement of the tubulin polymerization can be achieved using known methodologies. For example, assays for tubulin polymerization may be performed using a kit from Cytoskeleton (Denver, Colo.) and as described by Tahir, S. K., et al, (2001) Cancer Res., 61:5480–5.
The assay measures tubulin polymerization as an increase in turbidity (A340) over time. Assays for tubulin polymerization were performed using a kit from Cytoskeleton (Denver, Colo.) and as described by Tahir, S. K., et al, (2001) Cancer Res., 61: 5480–5, incorporated herein by reference, and as described below.
To determine the ability of the compounds to inhibit microtubule polymerization in vitro, the following protocol was followed: (i) 70 μl ice-cold MAP-rich tubulin protein from bovine brain (1.5 mg/ml final concentration) was added to polymerization buffer (80 mM PIPES pH6.8, 1 mM EGTA, 1 mM MgCl2, 1 mM GTP) in a quartz microcuvette; (ii) 0.7 μl of DMSO or 100X stock of control (nocodazole) or test compound (thienopyrimidine) in DMSO were added to the cuvette; (iii) the contents were mixed by pipefting gently; (iv) the polymerization reaction was initiated by placing the cuvette in pre-warmed (37° C.) cuvette holder in Beckman spectrophotometer; (v) the absorbance was monitored at 340 nm at 30 second intervals for 20 minutes. Tubulin polymerization result in increased turbidity in the reaction solution, which is registered as an increase in absorbance at 340 nm. Inhibitors of tubulin polymerization are detected by a reduction in the rate, the initial slope, and/or extent of the turbidity change (i.e., max. absorbance at 340 nm) in plots of ΔA340 versus time.

A549 (lung) tumors = assay: A549 (lung) human tumor xenograft in nude mice; format: in vivo, NCr nude (nu/nu) female mice
Excerpt: (§1) A nude mouse/human carcinoma model was used to examine the effect of tubulin inhibitors on tumor growth and animal survival. Groups of immune deficient (nude) mice were implanted subcutaneously with suspensions of the human tumor lines A549 (lung) and SW480 (colon). When palpable tumors appeared and were of a preselected volume (approximately 40–150 mm^3), animals were subdivided into various treatment groups such that the variation in mean tumor volume of each group was within 10%. The animals were then treated daily with either control vehicle or Compound 1 administered by intraperitonel injection. Twice weekly, the volume of the tumors in each animal in each group was measured to gather information on tumor growth (volume) as a function of time. Systemic toxicity was assessed by measuring individual animal body weights, and toxicity was evaluated by examination of differences in body weight gain as a function of time. Tumor volumes and body weights were monitored for up to 35 days after the beginning of treatment.
Cell Lines: Human tumor lines A549 (lung) and SW480 (colon) were grown in cell culture medium (F-11) containing 10% Fetal Bovine Serum (FBS). The cells were kept at 37° C. in a humidified 5% CO2/air incubator. Antibiotics were not added to the medium.
NCr nude (nu/nu) female mice, age 3–4 weeks, were purchased from Taconic (Germantown, N.Y.). The animals were housed ten per cage in sterile filter-topped cages in ventilated cage racks and Microisolator™ cages. Upon arrival, they were quarantined for at least four working days before use. Temperature was maintained at 72±5° F. (19–24° C.) and relative humidity at 35–70%, and a 12-hour light/dark cycle was used. The mice were fed sterile, autoclavable, certified, Purina rodent chow ad libitum. Drinking water was also autoclaved.
After the animals were released from quarantine, the mice were injected subcutaneously in the right flank with either 5×10^6 A549 cells or 5×10^6 SW480 cells in complete medium at an injection volume of 0.1 ml. Tumor dimensions and body weights were measured two times per week. Vernier calipers were used to measure tumors in two planes, and tumor volume (V) was calculated as follows: V=(xy^2)/2,
The test articles were administered intraperitoneally generally at a dose level of 10 mg/kg. When the solubility of a molecule of the invention was relatively low, we used relatively higher levels of organic co-solvents for preparation of the dosing solution. The “vehicle” of the invention comprised of 7.1% ethanol/35.8% PEG400/57.1% phosphate buffer (v/v/v).
When the tumor volumes reached a predetermined size (mean tumor volume between about 40–150 mm^3), animals were added randomly to treatment groups of 12 mice each as follows: Animals were treated daily with the vehicle or Compound 1 (10 mg/kg), or with the positive control drug (Taxol) administered by intraperitoneal injection at the maximum tolerated dose of 20 mg/kg every fourth day, on Days 1, 4, 7, and 10.
The tumor volumes of the animals were monitored for evidence of shrinkage or growth delay for a period of up to 35 days after the start of treatment. Response to treatment was measured in two ways, depending on the tumor response to treatment. The first was the optimum T/C (%), calculated as follows: For each day the tumors were measured, the changes in median tumor volume (V) for each treated (T) and control (C) group were determined by subtracting the […] tumor volume on the first day of treatment (Day 0) from the median tumor volume on the specific observation day. These values were used to express a percent difference in size, [% T/C=(T/C)×100]. The minimum value is designated the optimum response to treatment. A value of 42% or less is considered active by National Cancer Institute (NCI) standards. […]

A549 cells = assay: Bromodeoxyuridine (BrdU) proliferation assay; format: cell-based, human
Summary of the method: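 A549 cells were plated 24 h before compound, which was given at final 10, 3, 1, 0.3, 0.1 and 0.03 μM in 0.2% DMSO/0.75% ethanol.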

SW480 tumors = assay: SW480 (colon) human tumor xenograft in nude mice; format: in vivo, NCr nude (nu/nu) female mice; settings: 10 mg/kg daily intraperitoneal
Excerpt: as §1, with “treatment. […]” for “treatment.”
After the animals were released from quarantine, the mice were injected subcutaneously in the right flank with either 5×10^6 A549 cells or 5×10^6 SW480 cells in complete medium at an injection volume of 0.1 ml. Tumor dimensions and body weights were measured two times per week. […]

Q: Which “Inhibition of tubulin polymerization (reduction of rate of absorbance increase at 340 nanometers)” value [1] does the source give for `S=C(NNc1ncnc2cc(-c3ccccc3)sc12)Nc1ccccc1` [Compound 1] here?
A: Inhibition activity is observed

Q: What about the “Increase in tumor volume at 35 days normalized to tumor volume at start of drug treatment” value (A549 (lung) tumors; A549 xenograft, 10 mg/kg daily intraperitoneal, vehicle approximately 7-fold) of the same compound?
A: 4 fold

Q: And the “Mean tumor volume after 27 days of treatment” value (A549 (lung) tumors; A549 xenograft, 10 mg/kg daily, vehicle control 346.9±164.7 mm^3)?
A: 223.8±164.1 mm^3

Q: And the “Effect on tumor growth” value (A549 (lung) tumors; A549 xenograft, Compound 1 10 mg/kg daily intraperitoneal, 10 mg/kg)?
A: slowed tumor growth substantially; also recorded: substantial suppression of tumor growth

Q: What about the “%T/C (mean tumor volume treated vs. control ×100)” value (A549 (lung) tumors; A549 xenografts, 10 mg/kg daily intraperitoneal) of the same compound?
A: 65%

Q: What about the pIC50 (A549 cells; Homo sapiens, A549, 48 h, BrdU ELISA 48 hours after addition of compound, tested 0.03-10 uM, cell line not given (A549 method; SW-480 and MDA-MB-231 also used), read-out: Assay Result (IC50μM)) of the same compound?
A: 6.18

Q: What about the “Activity ranking: most active compounds of the invention” value (A549 cells; antiproliferative activity) of the same compound?
A: most active

Q: What about the “Activity ranking: particularly active examples of the compounds of the invention” value (A549 cells; antiproliferative activity) of the same compound?
A: particularly active

Q: And the “Effect on tumor size” value (SW480 tumors)?
A: did not result in a reduced tumor size

Q: What about the Tumor volume (SW480 tumors; controls 677.9±574.3 mm^3) of the same compound?
A: 647.7±500.6 mm^3
